Test results reported in article PMC10714390, “Quinoline Compounds Targeting the c-Ring of ATP Synthase Inhibit Drug-Resistant Pseudomonas aeruginosa” (ACS Infectious Diseases, 2023).
pIC50: −log10 of the molar value. Values joined by “and” are separate entries in the source; they are usually repeats but may differ in a detail not shown here. Equal entries are not always repeated.

Biological target: T1, PA ATP synthase cIle65Ala mutant (Pseudomonas aeruginosa, UniProt Q9HT15, I65A)
T1 construct: expressed in transfected cells; host or cells: E. coli K-12 DK8 transformed with pASH20 carrying mutated atpE
Assay: NADH-driven ATP synthesis inhibition, DK8/pASH20 cI65A membrane vesicles
Type: biochemical
Conditions: for pIC50: ATP synthesis IC50, DK8/pASH20 cI65A vesicles, cI65A mutant, NADH-driven, luminescence assay; for Hill coefficient of dose response fit, DK8/pASH20 cI65A vesicles: inhibition of ATP synthesis activity
Experimental: P. aeruginosa (ATCC 9027) was streaked onto a 10% TSB agar plate and incubated at room temperature for 72 h. A single colony was resuspended in 100 μL of H2O, and 5 μL was used as the DNA template for PCR with Q5 polymerase (NEB) and […] each of forward and reverse primers. Primers were complementary to regions flanking the atp operon and included sequences for HindIII and NdeI restriction sites (see the SI for primer sequences). The resulting 6.9 kbp DNA fragment was digested with HindIII and NdeI and ligated into digested vector pBR322 (New England Biolabs). The resultant pASH20(-i) plasmid contains a partial atpI gene. To complete the atpI gene, the HindII-XhoI fragment of pASH20(-i) was replaced with a synthetic fragment with a complete atpI (Twist Bioscience) to yield pASH20. The sequence of the entire operon was verified by Sanger DNA sequencing through the ligation sites. Subunit c mutations were introduced by exchanging the XhoI-BamHI fragment containing atpE with a synthetic fragment containing mutated atpE (Twist Bioscience).
Vesicles were prepared from P. aeruginosa and transformed E. coli cells as previously described.[22] Briefly, cells were grown in LB liquid medium at 37 °C with shaking and harvested by centrifugation after 7 h of growth. Cultures of transformant E. coli included 100 μg/mL ampicillin. Cells were disrupted in TMG buffer (50 mM Tris-HCl, MgCl2, 10% (v/v) glycerol, pH 7.5) using an Avestin B15 homogenizer at 19,000 psi. After unbroken cells and debris were cleared by centrifugation at 9000g, inverted vesicles were collected by centrifugation at 193,000g, resuspended in TMG buffer, and stored at −80 °C. Protein concentrations were determined using a modified Lowry assay.[25]
Continuous ATP synthesis activity of inverted membrane vesicles was measured using a luciferin/luciferase luminescence assay as previously described.[22] Inhibition of ATP synthesis activity by test compounds was determined using an end point assay essentially as previously described.[18],[26] In this assay, the synthesis reaction was initiated by 2.5 mM NADH, proceeded for 10 min, and was stopped with 1% trichloroacetic acid, 2 mM CCCP, and 10 mM EDTA. Samples from each reaction were diluted 500-fold prior to the addition of luciferase since quinoline compounds are known to inhibit luciferase.[27] This dilution was sufficient to minimize inhibition of luciferase (Figure S4). Each replicate set included a positive control containing DMSO with no compound and a negative control containing carbonyl cyanide m-chlorophenyl hydrazone. Luminescence values were corrected for the background by subtracting the negative control and then normalized to the positive control within the same replicate. Dose–response curves were fit using eq 1, where activity is the relative ATP synthesis activity, [I] is the concentration of inhibitor in μg/mL, and n is the Hill coefficient. [drawing 1] 1

| SMILES | pIC50 | Hill coefficient of dose response fit, DK8/pASH20 cI65A vesicles |
| --- | --- | --- |
| CSc1nc2ccccc2cc1CNCc1ccc(CN(C)C)cc1 [Compound 4, N,N-Dimethyl-1-(4-((((2-(methylthio)quinolin-3-yl)methyl)amino)methyl)phenyl)methanamine] | 4.23 and 4.22 | 1.2 |
| CN(C)Cc1ccc(CNCc2cc3ccccc3nc2SCc2ccccc2)cc1 [Compound 5, 1-(4-((((2-(Benzylthio)quinolin-3-yl)methyl)amino)methyl)phenyl)-N,N-dimethylmethanamine] | 4.88 | 1.7 |
